# Source: patent US10246456B2, “IRAK4 inhibiting agents” (BIOGEN MA INC., priority 2014, dated 2019)
# Tests used:
# IRAK4 = IRAK4 (Homo sapiens (Human), UniProt Q9NWZ3); experiment: IRAK-4 AlphaScreen biochemical kinase assay; details: 1 nM IRAK4, 1 mM ATP, 3.5 h at RT
# Summary of the method: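 AlphaScreen read-out: streptavidin beads bind the biotinylated peptide and protein A beads bind the anti-phosphothreonine antibody, so energy transfer reports phosphorylation of the peptide. The kinase is human IRAK-4.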
# IL-6 in A549 cells = experiment: Cell-based IL-6 ELISA assay in IL-1beta stimulated A549 cells; details: 2 ng/ml human IL-1beta overnight
# Summary of the method: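 A549 cells (2.5×10^4/well, DMEM/10% FBS) pretreated 30 min at 37 C with compound, 10-point serial dilution from 10 uM, then stimulated overnight with 2 ng/ml human IL-1beta. Secreted IL-6 in supernatant quantified by human IL-6 ELISA.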
# Sequence of IRAK4 (Q9NWZ3 whole entry, species assumed): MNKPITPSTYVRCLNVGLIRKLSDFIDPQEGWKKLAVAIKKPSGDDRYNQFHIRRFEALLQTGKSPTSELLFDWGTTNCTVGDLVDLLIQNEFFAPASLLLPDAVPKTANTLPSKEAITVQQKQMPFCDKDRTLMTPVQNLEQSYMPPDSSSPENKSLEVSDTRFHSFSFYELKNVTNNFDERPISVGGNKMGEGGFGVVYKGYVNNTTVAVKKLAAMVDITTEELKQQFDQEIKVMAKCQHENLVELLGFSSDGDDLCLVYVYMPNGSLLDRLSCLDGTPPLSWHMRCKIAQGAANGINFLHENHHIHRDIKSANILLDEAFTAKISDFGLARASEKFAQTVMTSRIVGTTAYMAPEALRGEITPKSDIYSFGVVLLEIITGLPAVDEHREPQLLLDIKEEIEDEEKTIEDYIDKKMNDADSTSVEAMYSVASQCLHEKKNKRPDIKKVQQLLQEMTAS
IC50 (IRAK4),EC50 (IL-6 in A549 cells),Compound
< 0.1 µM,≤ 1 µM,"Cc1nnc(-c2cc(-c3cccc([C@H](C)N)n3)cc3c2cnn3-c2cccc(CO)n2)s1 [Example 362, (S)-(6-(6-(6-(1-aminoethyl)pyridin-2-yl)-4-(5-methyl-1,3,4-thiadiazol-2-yl)-1H-indazol-1-yl)pyridin-2-yl)methanol]"
< 0.1 µM,≤ 1 µM,"C[C@H](N)c1cccc(-c2cc(-c3cn(C)cn3)c3cnn(-c4cccc(CO)n4)c3c2)n1 [Example 363, (S)-(6-(6-(6-(1-aminoethyl)pyridin-2-yl)-4-(1-methyl-1H-imidazol-4-yl)-1H-indazol-1-yl)pyridin-2-yl)methanol]"
< 0.1 µM,≤ 1 µM,"Cc1cc(-c2cc(-c3cccc([C@H](C)N)n3)cc3c2cnn3-c2cccc(CO)n2)n[nH]1 [Example 366, (S)-(6-(6-(6-(1-aminoethyl)pyridin-2-yl)-4-(5-methyl-1H-pyrazol-3-yl)-1H-indazol-1-yl)pyridin-2-yl)methanol]"
< 0.1 µM,≤ 1 µM,"C[C@H](N)c1cccc(-c2cc(-c3cnn(C)c3)c3cnn(-c4cccc(CO)n4)c3c2)n1 [Example 367, (S)-(6-(6-(6-(1-aminoethyl)pyridin-2-yl)-4-(1-methyl-1H-pyrazol-4-yl)-1H-indazol-1-yl)pyridin-2-yl)methanol]"
< 0.1 µM,≤ 1 µM,"C[C@H](N)c1cccc(-c2cc(-c3nc(C#N)cs3)c3cnn(-c4cccc(CO)n4)c3c2)n1 [Example 369, (S)-2-(6-(6-(1-aminoethyl)pyridin-2-yl)-1-(6-(hydroxymethyl)pyridin-2-yl)-1H-indazol-4-yl)thiazol-4-carbonitrile]"
< 0.1 µM,≤ 1 µM,"C[C@H](N)c1cccc(-c2cc(-c3ccsn3)c3cnn(-c4cccc(CO)n4)c3c2)n1 [Example 370, (S)-(6-(6-(6-(1-aminoethyl)pyridi9n-2-yl)-4-(isothiazol-3-yl)-1H-indazol-1-yl)pyridin-2-yl)methanol]"
< 0.1 µM,≤ 1 µM,"C[C@H](N)c1cccc(-c2cc(-c3ccccc3)c3cnn(-c4cccc(CO)n4)c3c2)n1 [Example 371, (S)-(6-(6-(6-(1-aminoethyl)pyridin-2-yl)-4-phenyl-1H-indazol-1-yl)pyridin-2-yl)methanol]"
< 0.1 µM,≤ 1 µM,"Cc1cnc(-c2cc(-c3cccc([C@H](C)N)n3)cc3c2cnn3-c2cccc(CO)n2)s1 [Example 372, (S)-(6-(6-(6-(1-aminoethyl)pyridin-2-yl)-4-(5-methylthiazol-2-yl)-1H-indazol-1-yl)pyridin-2-yl)methanol]"
< 0.1 µM,≤ 1 µM,"C[C@H](N)c1cccc(-c2cc(-c3nc(C(F)(F)F)co3)c3cnn(-c4cccc(CO)n4)c3c2)n1 [Example 374, (S)-(6-(6-(6-(1-aminoethyl)pyridin-2-yl)-4-(4-(trifluoromethyl)oxazol-2-yl)-1H-indazol-1-yl)pyridin-2-yl)methanol]"
< 0.1 µM,≤ 1 µM,"Cc1csc(-c2cc(-c3cccc([C@H](C)N)n3)cc3c2cnn3-c2cccc(CO)n2)n1 [Example 375, (S)-(6-(6-(6-(1-aminoethyl)pyridin-2-yl)-4-(4-methylthiazol-2-yl)-1H-indazol-1-yl)pyridin-2-yl)methanol]"
< 0.1 µM,≤ 1 µM,"C[C@H](N)c1cccc(-c2cc(-c3cnn(C(F)(F)F)c3)c3cnn(-c4cccc(CO)n4)c3c2)n1 [Example 376, (S)-(6-(6-(6-(1-aminoethyl)pyridin-2-yl)-4-(1-(trifluoromethyl)-1H-pyrazol-4-yl)-1H-indazol-1-yl)pyridin-2-yl)methanol]"
< 0.1 µM,1 to 10 µM,"C[C@H](N)c1cccc(-c2cc(-c3nc(C(F)(F)F)cs3)c3cnn(-c4cccc(CO)n4)c3c2)n1 [Example 378, (S)-(6-(6-(6-(1-aminoethyl)pyridin-2-yl)-4-(4-(trifluoromethyl)thiazol-2-yl)-1H-indazol-1-yl)pyridin-2-yl)methanol]"
< 0.1 µM,1 to 10 µM,"C[C@H](N)c1cccc(-c2cc(-c3nccs3)c3cnn(-c4cccc(CO)n4)c3c2)n1 [Example 379, (S)-(6-(6-(6-(1-aminoethyl)pyridin-2-yl)-4-(thiazol-2-yl)-1H-indazol-1-yl)pyridin-2-yl)methanol]"
< 0.1 µM,1 to 10 µM,"C[C@H](N)c1cccc(-c2cc(-c3ncc(C(F)(F)F)s3)c3cnn(-c4cccc(CO)n4)c3c2)n1 [Example 380, (S)-(6-(6-(6-(1-aminoethyl)pyridin-2-yl)-4-(5-(trifluoromethyl)thiazol-2-yl)-1H-indazol-1-yl)pyridin-2-yl)methanol]"
< 0.1 µM,1 to 10 µM,"C[C@H](N)c1cccc(-c2cc(-c3cc[nH]n3)c3cnn(-c4cccc(CO)n4)c3c2)n1 [Example 381, (S)-(6-(6-(6-(1-aminoethyl)pyridin-2-yl)-4-(1H-pyrazol-3-yl)-1H-indazol-1-yl)pyridin-2-yl)methanol]"
0.1 to 1 µM,≤ 1 µM,"C[C@H](N)c1cccc(-c2ccc3cnn(-c4cncc(CO)n4)c3c2)n1 [Example 397, (S)-(6-(6-(6-(1-aminoethyl)pyridin-2-yl)-1H-indazol-1-yl)pyrazin-2-yl)methanol]"
< 0.1 µM,≤ 1 µM,"CCC[C@@H](N)c1ccnc(-c2ccc3cnn(-c4cccc(CO)n4)c3c2)n1 [Example 414, (R)-(6-(6-(4-(1-aminobutyl)pyrimidin-2-yl)-1H-indazol-1-yl)pyridin-2-yl)methanol]"
< 0.1 µM,≤ 1 µM,"CC(F)(F)C[C@H](N)c1cccc(-c2ccc3cnn(-c4cccc(CO)n4)c3c2)n1 [Example 437, (S)-(6-(6-(6-(1-amino-3,3-difluorobutyl)pyridin-2-yl)-1H-indazol-1-yl)pyridin-2-yl)methanol]"

# Continued, molecule first:
Compound,IC50 (IRAK4),EC50 (IL-6 in A549 cells)
"C[C@H](N)c1cccc(-c2cc(-c3ncccn3)c3cnn(-c4cccc(CO)n4)c3c2)n1 [Example 364, (S)-(6-(6-(6-(1-aminoethyl)pyridin-2-yl)-4-(pyrimidin-2-yl)-1H-indazol-1-yl)pyridin-2-yl)methanol]",< 0.1 µM,≤ 1 µM
"Cc1cc(-c2cc(-c3cccc([C@H](C)N)n3)cc3c2cnn3-c2cccc(CO)n2)nn1C [Example 365, (S)-(6-(6-(6-(1-aminoethyl)pyridin-2-yl)-4-(1,5-dimethyl-1H-pyrazol-3-yl)-1H-indazol-1-yl)pyridin-2-yl)methanol]",< 0.1 µM,≤ 1 µM
"Cc1nc(-c2cc(-c3cccc([C@H](C)N)n3)cc3c2cnn3-c2cccc(CO)n2)cs1 [Example 368, (S)-(6-(6-(6-(1-aminoethyl)pyridin-2-yl)-4-(2-methylthiazol-4-yl)-1H-indazol-1-yl)pyridin-2-yl)methanol]",< 0.1 µM,≤ 1 µM
"C[C@H](N)c1cccc(-c2cc(-c3ccccn3)c3cnn(-c4cccc(CO)n4)c3c2)n1 [Example 373, (S)-(6-(6-(6-(1-aminoethyl)pyridin-2-yl)-4-(pyridin-2-yl)-1H-indazol-1-yl)pyridin-2-yl)methanol]",< 0.1 µM,≤ 1 µM
"Cc1nc(-c2cc(-c3cccc([C@H](C)N)n3)cc3c2cnn3-c2cccc(CO)n2)sc1C [Example 377, (S)-(6-(6-(6-(1-aminoethyl)pyridin-2-yl)-4-(4,5-dimethylthiazol-2-yl)-1H-indazol-1-yl)pyridin-2-yl)methanol]",< 0.1 µM,≤ 1 µM
"CC[C@H](N)c1cccc(-c2ccc3cnn(-c4cncc(CO)n4)c3c2)n1 [Example 398, (S)-(6-(6-(6-(1-aminopropyl)pyridin-2-yl)-1H-indazol-1-yl)pyrazin-2-yl)methanol]",< 0.1 µM,≤ 1 µM
"CCC[C@H](N)c1cccc(-c2ccc3cnn(-c4cncc(CO)n4)c3c2)n1 [Example 399, (S)-(6-(6-(6-(1-aminobutyl)pyridin-2-yl)-1H-indazol-1-yl)pyrazin-2-yl)methanol]",< 0.1 µM,≤ 1 µM
"C[C@H](N)c1ccnc(-c2ccc3cnn(-c4cccc(CO)n4)c3c2)n1 [Example 411, (S)-(6-(6-(4-(1-aminoethyl)pyrimidin-2-yl)-1H-indazol-1-yl)pyridin-2-yl)methanol]",< 0.1 µM,≤ 1 µM
"CCC[C@H](N)c1ccnc(-c2ccc3cnn(-c4cccc(CO)n4)c3c2)n1 [Example 413, (S)-(6-(6-(4-(1-aminobutyl)pyrimidin-2-yl)-1H-indazol-1-yl)pyridin-2-yl)methanol]",< 0.1 µM,≤ 1 µM
"N[C@H](c1cccc(-c2ccc3cnn(-c4cccc(CO)n4)c3c2)n1)C1CCC1 [Example 422, (S)-(6-(6-(6-(amino(cyclobutyl)methyl)pyridin-2-yl)-1H-indazol-1-yl)pyridin-2-yl)methanol]",< 0.1 µM,≤ 1 µM
"CCC[C@H](N)c1cccc(-c2cc(C3CCOCC3)c3cnn(-c4cccc(CO)n4)c3c2)n1 [Example 425, (S)-(6-(6-(6-(1-aminobutyl)pyridin-2-yl)-4-(tetrahydro-2H-pyran-4-yl)-1H-indazol-1-yl)pyridin-2-yl)methanol]",< 0.1 µM,≤ 1 µM
"N[C@@H](CCC(F)(F)F)c1cccc(-c2ccc3cnn(-c4cccc(CO)n4)c3c2)n1 [Example 427, (S)-(6-(6-(6-(1-amino-4,4,4-trifluorobutyl)pyridin-2-yl)-1H-indazol-1-yl)pyridin-2-yl)methanol]",< 0.1 µM,≤ 1 µM
"C=C(C)C[C@H](N)c1cccc(-c2ccc3cnn(-c4cccc(CO)n4)c3c2)n1 [Example 436, (S)-(6-(6-(6-(1-amino-3-methylbut-3-en-1-yl)pyridin-2-yl)-1H-indazol-1-yl)pyridin-2-yl)methanol]",< 0.1 µM,≤ 1 µM
